The first data set in a line: log P determination by reversed-phase HPLC (EEC Directive 79/831 Annex V.A8; acidic or neutral mobile phase). In kind it is physicochemical. The following applies: HPLC reversed-phase C18, 43° C., acidic range: 0.1% aqueous phosphoric acid, acetonitrile (marked a)). The protocol:
The log P values given in the table were determined in accordance with EEC Directive 79/831 Annex V.A8 by HPLC (High Performance Liquid Chromatography) using a reversed-phase column (C 18). Temperature: 43° C.
(a) Mobile phases for the determination in the acidic range: 0.1% aqueous phosphoric acid, acetonitrile; linear gradient from 10% acetonitrile to 90% acetonitrile—the corresponding measurement results are marked a) in Table 1.
(b) Mobile phases for the determination in the neutral range: 0.01 molar aqueous phosphate buffer solution, acetonitrile; linear gradient from 10% acetonitrile to 90% acetonitrile—the corresponding measurement results are marked b) in Table 1.
With `CON(Cc1cccnc1)Cc1c(S(C)(=O)=O)ccc(C(=O)C2C(=O)CCCC2=O)c1Cl` [Example 216], the logP result is recorded as “(I-2) logP = 1.47^a)”.

The same data set, now with this note: HPLC reversed-phase C18, 43° C.; acidic range: 0.1% aqueous phosphoric acid, acetonitrile gradient (marked a)).
On to `O=C1CCCC(=O)C1C(=O)c1ccc(Cl)c(OCCNS(=O)(=O)C(F)(F)F)c1Cl` [Example 9], for which the logP result was “logP = 3.25^a)”. On to `CCn1ncc(C(=O)c2ccc(Cl)c(OCCNS(=O)(=O)C(F)(F)F)c2Cl)c1O` [Example 10], for which the logP result is recorded as “logP = 2.72^a)”.

Take `CCCS(=O)(=O)NCCOc1c(Cl)ccc(C(=O)c2cnn(CC)c2O)c1Cl` [Example 167]: the logP result is reported as “logP = 2.15^a)”. For the compound `CCn1ncc(C(=O)c2ccc(Cl)c(OCCNS(=O)(=O)C(C)C)c2Cl)c1O` [Example 24], the logP entry was “logP = 2.07^a)”.

Turning to `CS(=O)(=O)NCCOc1c(Br)ccc(C(=O)C2C(=O)CCCC2=O)c1Br` [Example 18], the logP result is listed as “logP = 2.23^a)”. The same measure, in the same setting: in the case of `C=CCN(Cc1c(S(C)(=O)=O)ccc(C(=O)c2cnn(CC)c2O)c1Cl)OC` [Example 157] it was “(I-2) logP = 2.29^a)”.

The same data set, now with this note: HPLC reversed-phase C18, 43° C.; no a)/b) mark printed, mobile phase not given.
For the compound `CON(C)Cc1c(Cl)ccc(C(=O)C2C(=O)CCCC2=O)c1Cl` [Example 1, 2-[2,4-dichloro-3-(N-methoxy-N-methylaminomethyl)benzoyl]-1,3-cyclohexanedione], the logP result is “logP = 3.04”.

Still in this data set, the particulars now being: HPLC, reversed-phase C18, 43° C.; acidic range a): 0.1% aqueous phosphoric acid, acetonitrile, linear gradient 10% to 90% acetonitrile.
For the compound `CCN(Cc1c(S(C)(=O)=O)ccc(C(=O)C2C(=O)CCC(C)(C)C2=O)c1Cl)OC` (stereo not drawn) [Example 405], the logP result is recorded as “(I-2) logP = 3.70^a)”.

For `CN(Cc1c(S(C)(=O)=O)ccc(C(=O)C2C(=O)CCC(C)(C)C2=O)c1Cl)S(C)(=O)=O` (stereo not drawn) [Example 455], the logP entry is recorded as “(I-2) logP = 2.43^a)”. With `CCONCc1c(Cl)ccc(C(=O)C2C(=O)CCC(C)(C)C2=O)c1Cl` (stereo not drawn) [Example 449], the logP result is recorded as “(I-2) logP = 3.64^a)”. For the compound `CON(Cc1cccnc1)Cc1c(S(C)(=O)=O)ccc(C(=O)c2cnn(C)c2O)c1Cl` [Example 386], the logP result was “(I-2) logP = 0.64^a)”. In the case of `Cc1c(C(=O)C2C(=O)CCCC2=O)ccc(Br)c1OCCNS(C)(=O)=O` [Example 367], the logP entry was “logP = 2.19^a)”.

For the compound `CCn1ncc(C(=O)c2ccc(S(C)(=O)=O)c(CN(OC)C3CCOC3)c2Cl)c1O` (stereo not drawn) [Example 410], the logP entry was “(I-2) logP = 1.70^a)”.

On to `CC(C)ON(Cc1c(S(C)(=O)=O)ccc(C(=O)C2C(=O)CCCC2=O)c1Cl)C(C)C` [Example 420], for which the logP result is “logP = 3.99^a)”. For `CCN(Cc1c(Cl)ccc(C(=O)c2cnn(C)c2O)c1OC)S(C)(=O)=O` [Example 463], the logP entry was “logP = 1.80^a)”.

On to `CN(Cc1c(S(C)(=O)=O)ccc(C(=O)C2C(=O)CCCC2=O)c1Cl)OC1CCCC1` [Example 398], for which the logP result is on record as “(I-2) logP = 3.69^a)”.

Take `CCn1ncc(C(=O)c2ccc(S(C)(=O)=O)c(CN(C)OCC3CCOC3)c2Cl)c1O` (stereo not drawn) [Example 435]: the logP entry is “(I-2) logP = 2.03^a)”. Still for that read-out and setting: the result for `CCN(Cc1c(S(C)(=O)=O)ccc(C(=O)C2C(=O)CC(C)CC2=O)c1Cl)S(C)(=O)=O` (stereo not drawn) [Example 475] reads “(I-2) logP = 2.32^a)”; that for `CCn1ncc(C(=O)c2ccc(Br)c(OCCNS(=O)(=O)CC)c2C)c1O` [Example 362], “logP = 2.09^a)”. As to `CCn1ncc(C(=O)c2ccc(S(C)(=O)=O)c(CN(C)OCC3CC3)c2Cl)c1O` [Example 445], the logP entry is given as “(I-2) logP = 2.05^a)”.

For the compound `CCON(Cc1c(S(C)(=O)=O)ccc(C(=O)C2C(=O)CCC(C)(C)C2=O)c1Cl)CC1CCOC1` (stereo not drawn) [Example 446], the logP entry is “(I-2) logP = 3.60^a)”.

`CCn1ncc(C(=O)c2ccc(Cl)c(OCCNS(C)(=O)=O)c2C)c1O` [Example 360]: the logP result is recorded as “logP = 1.82^a)”.

With `COc1c(C(=O)c2cnn(C)c2O)ccc(Cl)c1CN(C)S(C)(=O)=O` [Example 471], the logP result is “logP = 1.55^a)”.

In the case of `CCn1ncc(C(=O)c2ccc(S(C)(=O)=O)c(CN(Cc3ccoc3)OC)c2Cl)c1O` [Example 441], the logP result is listed as “(I-2) logP = 2.39^a)”. For `CCN(Cc1c(Cl)ccc(C(=O)c2cnn(CC)c2O)c1OC)OC` [Example 485], the logP entry is listed as “logP = 2.97^a)”. On to `CCONCc1c(Cl)ccc(C(=O)C2C(=O)CCCC2=O)c1OC` [Example 447], for which the logP result was “logP = 2.20^a)”. Still for that read-out and setting: in the case of `CN(Cc1c(Cl)ccc(C(=O)c2cnn(C)c2O)c1Cl)S(C)(=O)=O` [Example 457] it was “logP = 1.44^a)”; in that of `CS(=O)(=O)c1ccc(C(=O)C2C(=O)CCCC2=O)c(Cl)c1CNOCCOc1ccccc1` [Example 442], “(I-2) logP = 3.07^a)”; in that of `CCn1nc(C)c(C(=O)c2ccc(Cl)c(OCCNS(C)(=O)=O)c2Cl)c1O` [Example 355], “logP = 1.32^a)”. `CCn1ncc(C(=O)c2ccc(Cl)c(CN(C)S(C)(=O)=O)c2OC)c1O` [Example 470]: the logP result was “logP = 1.86^a)”. On to `CCn1ncc(C(=O)c2ccc(S(C)(=O)=O)c(CN(C)OC(C)C)c2Cl)c1O` [Example 395], for which the logP entry is recorded as “logP = 2.33^a)”. Regarding `COCCON(C)Cc1c(S(C)(=O)=O)ccc(C(=O)C2C(=O)CCCC2=O)c1Cl` [Example 429], the logP entry is listed as “(I-2) logP = 2.43^a)”. In the case of `CON(Cc1c(S(C)(=O)=O)ccc(C(=O)C2C(=O)CCCC2=O)c1Cl)C1CCCOC1` (stereo not drawn) [Example 411], the logP entry is given as “(I-2) logP = 2.74^a)”. In the case of `CCn1ncc(C(=O)c2ccc(S(C)(=O)=O)c(CN(C)OC3CCCC3)c2Cl)c1O` [Example 397], the logP result is “(I-2) logP = 2.87^a)”.

Take `CON(Cc1c(S(C)(=O)=O)ccc(C(=O)c2cnn(C)c2O)c1Cl)C(C)C` [Example 371]: the logP entry is reported as “logP = 2.16^a)”. Turning to `CCS(=O)(=O)NCCOc1c(Br)ccc(C(=O)C2C(=O)CCCC2=O)c1C` [Example 364], the logP entry is given as “logP = 2.41^a)”. Same read-out and setting: the result for `CCN(Cc1c(S(C)(=O)=O)ccc(C(=O)C2C(=O)CCCC2=O)c1Cl)OC(C)C` [Example 402] reads “logP = 3.52^a)”; that for `CON(Cc1c(S(C)(=O)=O)ccc(C(=O)C2C(=O)CCCC2=O)c1Cl)C1CCOC1` (stereo not drawn) [Example 409], “(I-2) logP = 2.32^a)”. For the compound `CCON(C)Cc1c(S(C)(=O)=O)ccc(C(=O)C2C(=O)CCCC2=O)c1Cl` [Example 424], the logP result is listed as “logP = 2.82^a)”. Regarding `CCN(Cc1c(S(C)(=O)=O)ccc(C(=O)c2c(C)nn(CC)c2O)c1Cl)OC` [Example 406], the logP entry is on record as “(I-2) logP = 2.04^a)”.

Consider `CCN(Cc1c(S(C)(=O)=O)ccc(C(=O)C2C(=O)CCC(C)(C)C2=O)c1Cl)S(C)(=O)=O` (stereo not drawn) [Example 466], for which the logP entry was “(I-2) logP = 2.64^a)”. Take `CCn1ncc(C(=O)c2ccc(S(C)(=O)=O)c(CN(C)OCC3CCCCO3)c2Cl)c1O` (stereo not drawn) [Example 439]: the logP entry was “(I-2) logP = 2.35^a)”. Take `CCN(CC)C(=O)CN(Cc1c(S(C)(=O)=O)ccc(C(=O)c2cnn(C)c2O)c1Cl)OC` [Example 388]: the logP result was “(I-2) logP = 1.59^a)”. As to `CCON(Cc1c(S(C)(=O)=O)ccc(C(=O)C2C(=O)CCCC2=O)c1Cl)CC1CCOC1` (stereo not drawn) [Example 415], the logP entry is “(I-2) logP = 2.84^a)”. On the same count and under the same terms, the result for `CCON(C)Cc1c(S(C)(=O)=O)ccc(C(=O)c2cnn(CC)c2O)c1Cl` [Example 413] reads “logP = 2.09^a)”; that for `CCn1ncc(C(=O)c2ccc(Cl)c(CN(C)OC)c2OC)c1O` [Example 479], “logP = 2.35^a)”; that for `CCN(CC)C(=O)CN(Cc1c(S(C)(=O)=O)ccc(C(=O)c2cnn(CC)c2O)c1Cl)OC` [Example 389], “(I-2) logP = 1.85^a)”.

Still in this data set, the particulars now being: HPLC, reversed-phase C 18, 43° C.; acidic range: 0.1% aqueous phosphoric acid, acetonitrile (marked a) or acidic).
With `COC(=O)c1ccc(S(C)(=O)=O)c(CN(OC(C)C)C(C)C)c1Cl` [VIII-47], the “log P (acidic)” value is “logPacidic = 3.86”. On to `COC(=O)c1ccc(S(C)(=O)=O)c(CN(C)OCC2CC2)c1Cl` [VIII-33], for which the “log P (acidic)” value is reported as “logPacidic = 2.98”. `COC(=O)c1ccc(S(C)(=O)=O)c(CN(Cc2ccccn2)OC)c1Cl` [VIII-41]: the “log P (acidic)” value was “logPacidic = 1.17”. As for `COC(=O)c1ccc(S(C)(=O)=O)c(CN(OC)C2CCOC2)c1Cl` (stereo not drawn) [VIII-58], the “log P (acidic)” value is listed as “logPacidic = 2.17”. Consider `COC(=O)c1ccc(S(C)(=O)=O)c(OCCNS(C)(=O)=O)c1Cl` [VIII-30], for which the “log P (acidic)” value is “logPacidic = 1.56”. For the compound `COC(=O)c1ccc(S(C)(=O)=O)c(CN(CC2CCOC2)OC)c1Cl` (stereo not drawn) [VIII-54], the “log P (acidic)” value is “logPacidic = 2.35”. As to `COC(=O)c1ccc(S(C)(=O)=O)c(CN(Cc2ccoc2)OC)c1Cl` [VIII-57], the “log P (acidic)” value was “logPacidic = 2.91”.

Still in this data set, the particulars now being: HPLC, reversed-phase C 18, 43° C.; mobile phase range not marked.
As for `CONCc1c(Cl)ccc(C(=O)OC)c1Cl` [VIII-6], the “log P” value is on record as “logP = 2.26”.

Turning to `CCONCc1c(S(C)(=O)=O)ccc(C(=O)OC)c1Cl` [VIII-11], the “log P” value is “logP = 2.05”. As to `CCOC(=O)c1ccc(Cl)c(OCCNS(=O)(=O)c2cccs2)c1Cl` [VIII-18], the “log P” value was “logP = 3.20”. On the same count and under the same terms, in the case of `CCOC(=O)c1ccc(Cl)c(OCCNS(C)(=O)=O)c1Cl` [VIII-14] it was “logP = 2.24”; in that of `CCOC(=O)c1ccc(Cl)c(OCCNS(=O)(=O)CC(F)(F)F)c1Cl` [VIII-17], “logP = 3.08”.

The data set is the same for the next values; noted with them: reversed-phase C18 HPLC column; HPLC, reversed-phase C 18, 43° C.; mobile phase range not marked; read-out: log P.
As to `CS(=O)(=O)NCCOc1c(Cl)ccc(C(=O)O)c1Cl` [II-2, 2,4-dichloro-3-(2-methylsulphonylaminoethoxy)benzoic acid], the chromatographic logP amounted to 1.36. On to `CON(C)Cc1c(Cl)ccc(C(=O)C2C(=O)CCCC2=O)c1Cl` [Example 1, 2-[2,4-dichloro-3-(N-methoxy-N-methylaminomethyl)benzoyl]-1,3-cyclohexanedione], for which the chromatographic logP is 3.04. Regarding `CCOC(=O)c1ccc(Cl)c(OCCN)c1Cl` [ethyl 3-(2-aminoethoxy)-2,4-dichlorobenzoate], the chromatographic logP came to 1.08.

The record behind these values is US7807703B2, “Substituted aryl ketones” (Bayer CropScience AG, priority 2002, dated 2010).
